Relative viability data for 5 cell lines are collected here from the supplement of paper PMC10307832.

Common to all, as to experiment: relative viability (nuclei count vs DMSO), 5 days (fraction); higher = more cells survive
Compound in assay [1]: C1CN(CCC1C(C2=CC3=C(C=C2)OCO3)(C4=CC5=C(C=C4)OCO5)O)C(=O)OC6=CC=C(C=C6)[N+](=O)[O-] [JZL-184] + CC(=O)c1c(C)c2cnc(Nc3ccc(N4CCNCC4)cn3)nc2n(C2CCCC2)c1=O [Palbociclib] (partner 0.5 µM)
In short, it runs like this:
(§1)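 Values are medians from duplicate plates. Each reflects relative viability, defined as the nuclei count of treated wells over that of vehicle wells. Lung cancer cell lines in 1536-well plates were pin-tool dosed one day after seeding with one drug alone or with a fixed anchor-drug dose plus five library-drug doses (not always all listed) in √10 steps, then fixed, stained and imaged at 4× after 5 days.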

Compound in assay [2]: C1CN(CCC1C(C2=CC3=C(C=C2)OCO3)(C4=CC5=C(C=C4)OCO5)O)C(=O)OC6=CC=C(C=C6)[N+](=O)[O-] [JZL-184] + CS(=O)(=O)CCNCc1ccc(-c2ccc3ncnc(Nc4ccc(OCc5cccc(F)c5)c(Cl)c4)c3c2)o1 [Lapatinib] (partner 2 µM)
In short, it runs like this:
as §1

Compound in assay [3]: C1CN(CCC1C(C2=CC3=C(C=C2)OCO3)(C4=CC5=C(C=C4)OCO5)O)C(=O)OC6=CC=C(C=C6)[N+](=O)[O-] [JZL-184] + CS(=O)(=O)N1CCN(Cc2cc3nc(-c4cccc5[nH]ncc45)nc(N4CCOCC4)c3s2)CC1 [Pictilisib] (partner 1 µM)
In short, it runs like this:
as §1

Compound in assay [4]: C1CN(CCC1C(C2=CC3=C(C=C2)OCO3)(C4=CC5=C(C=C4)OCO5)O)C(=O)OC6=CC=C(C=C6)[N+](=O)[O-] [JZL-184] + CC(=O)Nc1cccc(-n2c(=O)n(C3CC3)c(=O)c3c(Nc4ccc(I)cc4F)n(C)c(=O)c(C)c32)c1 [Trametinib] (partner 0.02 µM)
In short, it runs like this: as §1

Compound in assay [5]: C1CN(CCC1C(C2=CC3=C(C=C2)OCO3)(C4=CC5=C(C=C4)OCO5)O)C(=O)OC6=CC=C(C=C6)[N+](=O)[O-] [JZL-184] + CCNC(=O)c1noc(-c2cc(C(C)C)c(O)cc2O)c1-c1ccc(CN2CCOCC2)cc1 [Luminespib] (partner 0.01 µM)
In short, it runs like this: as §1

As to HCC-78, the relative viability in assay [1] (first compound 0.04 µM) turned out to be 0.425; in assay [1] (first compound 0.4 µM), 0.425; in assay [1] (first compound 1.265 µM) it was 0.452; in assay [1] (first compound 4 µM) it was 0.471; in assay [2] (first compound 0.04 µM), 0.634; in assay [2] (first compound 0.4 µM), 0.787. Moreover, the relative viability in assay [2] (first compound 1.265 µM) worked out at 0.755; in assay [2] (first compound 4 µM), 0.302; in assay [3] (first compound 0.04 µM) it was 0.204; in assay [3] (first compound 0.4 µM), 0.188; in assay [3] (first compound 1.265 µM) it was 0.248; in assay [3] (first compound 4 µM), 0.2. Moreover, the relative viability in assay [4] (first compound 0.04 µM) is 0.705; in assay [4] (first compound 1.265 µM), 0.912; in assay [4] (first compound 4 µM), 0.565.
On to HCC-366, for which the relative viability was 0.426 in assay [1] (first compound 0.04 µM); 0.374 in assay [1] (first compound 0.4 µM); 0.394 in assay [1] (first compound 1.265 µM); 0.322 in assay [1] (first compound 4 µM); 1.19 in assay [2] (first compound 0.04 µM); 0.959 in assay [2] (first compound 0.4 µM). Also, the relative viability in assay [2] (first compound 1.265 µM) was 1.13; in assay [2] (first compound 4 µM), 1.05; in assay [3] (first compound 0.04 µM) it was 0.158; in assay [3] (first compound 0.4 µM) it was 0.179; in assay [3] (first compound 1.265 µM), 0.155; in assay [3] (first compound 4 µM) it was 0.113. For the same cell line, the relative viability in assay [4] (first compound 0.04 µM) came to 0.384; in assay [4] (first compound 0.4 µM), 0.348; in assay [4] (first compound 1.265 µM), 0.332; in assay [4] (first compound 4 µM), 0.276.
With HCC-827, the relative viability worked out at 0.52 in assay [1] (first compound 0.04 µM); 0.441 in assay [1] (first compound 0.4 µM); 0.555 in assay [1] (first compound 1.265 µM); 0.48 in assay [1] (first compound 4 µM); 0.228 in assay [2] (first compound 0.04 µM); 0.196 in assay [2] (first compound 0.4 µM). The relative viability in assay [2] (first compound 1.265 µM) stood at 0.234; in assay [2] (first compound 4 µM) it was 0.221; in assay [3] (first compound 0.04 µM), 0.915; in assay [3] (first compound 0.4 µM) it was 0.908; in assay [3] (first compound 1.265 µM), 1.01; in assay [3] (first compound 4 µM), 1.06. The relative viability in assay [4] (first compound 0.04 µM) came to 0.536; in assay [4] (first compound 0.4 µM), 0.55; in assay [4] (first compound 1.265 µM), 0.583; in assay [4] (first compound 4 µM) it was 0.515; in assay [5] (first compound 0.04 µM), 0.804; in assay [5] (first compound 0.4 µM), 0.587. The relative viability in assay [5] (first compound 1.265 µM) came out at 0.91; in assay [5] (first compound 4 µM) it was 0.671.
On to HOP-62, for which the relative viability was 0.481 in assay [1] (first compound 0.04 µM); 0.374 in assay [1] (first compound 0.4 µM); 0.453 in assay [1] (first compound 1.265 µM); 0.455 in assay [1] (first compound 4 µM); 1.19 in assay [2] (first compound 0.04 µM); 1 in assay [2] (first compound 0.4 µM). For the same cell line, the relative viability in assay [2] (first compound 1.265 µM) came out at 0.665; in assay [2] (first compound 4 µM) it was 0.986; in assay [3] (first compound 0.04 µM), 0.69; in assay [3] (first compound 0.4 µM) it was 0.822; in assay [3] (first compound 1.265 µM) it was 0.901; in assay [3] (first compound 4 µM) it was 0.94. Also, the relative viability in assay [4] (first compound 0.04 µM) was determined as 0.372; in assay [4] (first compound 0.4 µM), 0.4; in assay [4] (first compound 1.265 µM), 0.375; in assay [4] (first compound 4 µM), 0.371; in assay [5] (first compound 0.04 µM) it was 1.03; in assay [5] (first compound 0.4 µM), 0.968. Besides, the relative viability in assay [5] (first compound 1.265 µM) came out at 0.902; in assay [5] (first compound 4 µM), 0.957.
IA-LM: the relative viability was determined as 1.09 in assay [2] (first compound 0.04 µM); 0.555 in assay [2] (first compound 0.4 µM); 0.759 in assay [2] (first compound 1.265 µM); 0.629 in assay [2] (first compound 4 µM); 0.456 in assay [3] (first compound 0.04 µM); 0.361 in assay [3] (first compound 0.4 µM). In addition, the relative viability in assay [3] (first compound 1.265 µM) was found to be 0.376; in assay [3] (first compound 4 µM) it was 0.312.
